± gives the expanded uncertainty stated by the source.
Details: Crystal; DTA

Normal melting temperature: 52.80 ± 0.5 °C
Structure (SMILES): O=C1C=CC(=O)O1 [maleic anhydride]
